Experimental data: patent US20180333386A1, “AGENTS USEFUL FOR TREATING FRIEDREICH'S ATAXIA AND OTHER NEURODEGENERATIVE DISEASES” (IXCHEL PHARMA LLC, priority 2011, published 2018)
Entries after “also recorded” stand apart in the source; their conditions may differ. Where a name gives a salt, the structure may show the parent alone.

Experiments:
[1] = tested on: frataxin (FXN) protein in YG8 FRDA transgenic mouse; test: Frataxin level in YG8 FRDA transgenic mouse model (Western blot of cerebellum and splenocytes); assay type: in vivo; conditions: for frataxin in brains and other tissues of the animal model of FRDA: result in words; for FXN expression in vivo, FXN/actin densitometry: hemizygous YG8 mice
Description: Dyclonine increases frataxin levels in vivo. To determine ability of dyclonine to reverse the in vivo FXN protein defect, the YG8 FRDA transgenic mouse model was chosen. Hemizygous animals with the least frataxin were separated into vehicle and treatment groups. Homozygous mice (two copies of FXN gene) were used as positive control. Animals were dosed daily with 1 mg/kg dyclonine via intraperitoneal injection for 6 days. At the end of the study, the animals were sacrificed, and processed for biochemical analysis, i.e. Western blots of treated and vehicle groups of Cerebellum and splenocyte frataxin level. Western blot of cerebellum and splenocytes is shown (FIG. 6A) and densitometry of FXN/actin normalization (FIG. 6B) showing dyclonine induces FXN expression in vivo by 1.5-2 fold.
Of these 20, 8 were tested in the YG8 transgenic mouse model. […] Animals were dosed daily with 1-10 mg/kg drug via intraperitoneal injection for 6 days. At the end of the study, the animals were sacrificed, and processed for biochemical analysis, i.e. Western blots (protocol above) of treated and vehicle groups of Cerebellum and splenocyte frataxin level. Western blot of cerebellum is shown (FIG. 7B) and densitometry of FXN/actin normalization (FIG. 7A) showing dimethyl fumarate, dyclonine, methylene blue, and nifursol induce FXN expression in vivo by 1.5-2 fold.
To determine ability of dimethyl fumarate to reverse the in vivo FXN protein defect, the YG8 FRDA transgenic mouse model was chosen. Hemizygous animals with largest FXN defect, were separated into vehicle and treatment groups. Homozygous mice were used as positive control. Animals were dosed daily with 5 mg/kg dimethyl fumarate via intraperitoneal injection for 6 days. A non-specific HDAC inhibitor was used as a positive control, dosed at 1 mg/kg. At the end of the study, the animals were sacrificed, and processed for biochemical analysis, i.e. Western Blots of treated and vehicle groups of cerebellum and splenocyte frataxin level.

[2] = tested on: frataxin (FXN) protein in FRDA patient lymphoblasts; test: Frataxin protein level in FRDA patient lymphoblasts by Western blot; assay type: cell-based, human; conditions: 48 hr
Description: (§1) To test if one mechanism of protection from diamide toxicity for dyclonine was an increase in frataxin protein levels, HeLa cells or FRDA patient lymphoblasts were cultured for 48 hr in the presence of 10 micromolar dyclonine in 6 well dishes. Cells were harvested and whole cell lysates were analyzed by Western blot (protocol below). Representative blots are shown for HeLa cells (FIG. 5A) and FRDA and healthy siblings lymphoblasts (FIG. 5B), as well as densitometry normalization to actin. Dyclonine induction of FXN levels was consistent over multiple experiments (FIG. 5C).
(§2) Western Blot Protocol: Forty micrograms of whole-cell lysates were analyzed on […] Bis-Tris gels (Invitrogen, Carsbad, Calif., USA). Electrophoresis was carried out according to the manufacturer's instruction. After electrophoresis, the proteins were transferred to nitrocellulose membranes by iBlot device (Invitrogen). The membranes were blocked with blocking buffer (Odyssey, Lincoln, Nebr., USA) for 1 h and incubated overnight with primary antibodies in blocking buffer: anti-frataxin anti-β-actin, tubulin, (Sigma). Afterwards, the membranes were incubated with a corresponding pair of IRDye 680CW- and IRDye 800CW-coupled (Odyssey) secondary antibodies for 1 h. The membranes were washed four times with 1× Tris-buffered saline with Tween 20 and proteins were visualized with a LI-COR infrared imager (Odyssey). The pictures were processed by Odyssey version 3.0 infrared imaging software.
(§3) An additional hit in the diamide screening assay in FRDA fibroblasts was dimethyl fumarate (protocol above). […] To test if the mechanism of protection from diamide toxicity was an increase in frataxin protein levels, HeLa cells or FRDA patient lymphoblasts were cultured for 48 hr in the presence of 0.03-30 micromolar dimethyl fumarate in 12-well dishes. Cells were harvested and whole cell lysates were analyzed by Western blot (protocol above). Representative blots are shown for HeLa cells (FIG. 9A) and FRDA lymphoblasts (FIG. 9B). FXN was induced 1.37 fold ±0.1 (n=3) in HeLa cells, and 2.4 fold ±0.9 (n=3) in FRDA lymphoblasts.
An additional hit in the diamide screening assay (protocol above) in FRDA fibroblasts was the phenathiazine, tolonium cl. […] To test if the mechanism of protection from diamide toxicity was an increase in frataxin protein levels, the phenothiazines tolonium cl and methylene blue were tested. […] Cells were harvested and whole cell lysates were analyzed by Western blot (protocol above). […]
To test if Methylene blue also potentiates DMF-mediated FXN induction, FRDA patient lymphoblasts were cultured for 48 hr in the presence of 3 micromolar dimethyl fumarate and 3 micromolar methylene blue in 6 well dishes. Cells were harvested and whole cell lysates were analyzed by Western blot (protocol above).

[3] = tested on: human FRDA patient fibroblasts; test: Diamide screening assay: protection of FRDA patient fibroblasts from diamide toxicity (Calcein-AM viability); assay type: cell-based; conditions: for protection from diamide toxicity: 200 micromolar diamide, result in words; for EC50: Homo sapiens, Fibroblast; for EC50 / maximum effect of protection from diamide toxicity, fold increase from baseline: n=3; for maximum effect of protection from diamide toxicity, fold increase from baseline: dose-response
Excerpt: The cell-based assay was further optimized for high-throughput screening in 96-well plates, with an excellent screening window and low variability, represented by a Z′ value of 0.75 (n=5) and was used to screen a library of 1600 drugs that have been approved for clinical use in the USA. Drugs that rescued at DMSO mean+two standard deviations were repeated an additional two times. Compounds that rescued in >2 screens advanced to secondary screening, which included replication of protective effect in a concentration-dependent manner, 0.01-10 μM. […] Additional mechanisms are listed below.
Diamide Screening Method Format: On the day one of the assay, cell density was determined using the Vi-Cell counter, and a volume corresponding to 5,500 human FRDA patient fibroblasts per well was aliquoted into 96-well black/clear poly-d-lysine coated plates in growth media, and the cells were allowed 3 hours to attach. Drugs (10 mM stock in DMSO) are dispensed into wells after an intermediate dilution in PBS, giving a final DMSO concentration of 0.1% using an electronic multichannel pipette. Test compounds were tested at 10 micromolar. There were 8 negative control (0.1% DMSO only) and 8 positive control (300 micromolar DTT) wells on each plate. Plates were incubated at 37 C and 5% CO2 for twenty-four hours after which 200 micromolar diamide was added to all wells. Plates were incubated for an additional 16 hours as before. Cells were washed with PBS and incubated with Calcein-AM cell viability dye (Invitrogen, Carlsbad, Calif., USA) and fluorescence was read with a PolarStar Omega plate reader (BMG LabTech, Cary, N.C.). Hits were scored as Basal Median+3×MAD.

[4] = tested on: Nrf2 target antioxidant response element (ARE); test: Nrf2/ARE luciferase assay in reporter HeLa cell line; assay type: cell-based, human; conditions: for Nrf2/ARE activity (ARE-luciferase): 24 hours, threshold mean+2× Standard deviation of the vehicle control
Description: To evaluate the mechanism of FXN induction of the […] that protected from diamide, the potency of each to activate the Nrf2 target antioxidant response element (ARE) was evaluated. 10 of the 20 frataxin inducers interacted with the Nrf2 pathway in a significant way, either positively or negatively. The dashed line=mean+2×SD. […] Dyclonine's induction of ARE/Nrf2 activity was dose-dependent (FIG. 13B).
The Nrf2 reporter HeLa cell line was generated using the Lenti Antioxidant Response Reporter (Qiagen, Valencia, Calif.) system, which expressed firefly luciferase gene and the ARE transcriptional response element. 15,000 cells/well were plated in 90 ul in phenol-free DMEM media in white wall/bottom 96 well plates. Drugs were added and plates incubated at 37 C for 24 hours. 75 microliters of Bright Glo Luciferase Assay Reagent (Promega, Madison, Wis.) with combined lysis solution was added to all wells and allowed to incubate for 5 minutes at room temperature. Luminescence was then read with a PolarStar Omega plate reader (BMG LabTech, Cary, N.C.).

[5] = tested on: frataxin (FXN) protein in HeLa cells; test: Frataxin protein level in HeLa cells by Western blot; assay type: cell-based, human
Description: as §1, §2, §3

[6] = tested on: frataxin (FXN) protein in FRDA lymphoblasts; test: In-cell Western of FXN in FRDA lymphoblasts (synergy of FXN-inducing drugs); assay type: cell-based, human; conditions: 5 micromolar dyclonine with dose-response of dimethyl fumarate, 48 hours
Description: To evaluate potential synergy of identified FXN-inducing drugs, a dose-response of dimethyl fumarate in the absence or presence of 5 micromolar dyclonine was determined in FRDA lymphoblasts incubated for 48 hours in 96 well plates. Whole cells were fixed and permeabilized and for analyzed using in-cell Western technique (protocol below).
In-Cell Western Blot Protocol: 50,000 cells/well were plated in black walled clear bottom 96-well poly-d-lysine coated plates. After drug treatment, media was removed by aspiration and cells were fixed by addition of 100 ul/well of 3.7% formaldehyde in PBS. After 30 minutes, fixing solution was removed and 100 ul/well of 0.1% TritonX100 in PBS was added to all wells. After 40 minutes, cells were blocked with 100 ul blocking buffer (Odyssey, Lincoln, Nebr., USA) for 1 h and incubated with primary antibodies in blocking buffer: anti-frataxin (Mitosciences, Eugene, Oreg.) anti-β-actin (Sigma) for one hour. Cells were washed three times with 1× Tris-buffered saline with Tween 20, and then incubated with 100 ul/well of IRDye 680CW- and IRDye 800CW-coupled (Odyssey) secondary antibodies for 1 h. The cells were washed three times with 1× Tris-buffered saline with Tween 20 and signal was visualized with a LI-COR infrared imager (Odyssey). The pictures were processed by Odyssey version 3.0 infrared imaging software.

[7] = tested on: frataxin deficient 50B11 dorsal root ganglion cell line; test: Thiol-antioxidant inhibitors in siRNA-mediated frataxin deficient 50B11 dorsal root ganglion cell line; assay type: cell-based; conditions: for death of neurons with frataxin deficiency on treatment: siRNA frataxin knockdown vs. control
Description: Therefore, 11 inhibitors of these antioxidants were tested in siRNA-mediated frataxin deficient 50B11 dorsal root ganglion cell line. […] The major mitochondrial antioxidant system is thioredoxin reductase. Auranofin is a specific inhibitor of thioredoxin reductase, and diamide is a known oxidizer of thioredoxin. Thus the diamide screen identifies compounds that rescue from thioredoxin reductase deficiency, which include inducers of Nrf2, which are known to induce thioredoxin reductase and other antioxidant functions.

Molecule: CN(C)c1ccc2nc3ccc(=[N+](C)C)cc-3sc2c1 [methylene blue]
- frataxin in brains and other tissues of the animal model of FRDA [1]: increased frataxin
- potentiation of DMF-mediated FXN induction ([2]; 3 micromolar methylene blue with 3 micromolar dimethyl fumarate, Western blot): potentiates DMF FXN induction
- Fold FXN induction in FRDA lymphoblasts ([2]; 10 nanomolar methylene blue, n=2): 1.7 fold
- protection from diamide toxicity [3]: neuroprotective

Molecule: O=C(N/N=C/c1ccc([N+](=O)[O-])o1)c1cc([N+](=O)[O-])cc([N+](=O)[O-])c1O [nifursol]
- frataxin in brains and other tissues of the animal model of FRDA [1]: increased frataxin
- protection from diamide toxicity [3]: neuroprotective

Molecule: CCCCOc1ccc(C(=O)CCN2CCCCC2)cc1 [dyclonine]
- FXN expression in vivo, FXN/actin densitometry ([1]; 1 mg/kg daily intraperitoneal for 6 days, cerebellum and splenocytes): 1.5-2 fold
- frataxin in brains and other tissues of the animal model of FRDA [1]: increased frataxin
- frataxin expression in FRDA lymphoblasts ([2]; 10 micromolar dyclonine, result in words): Induces Frataxin Expression
- Nrf2/ARE activity (ARE-luciferase) [4]: induced Nrf2/ARE activity
- dose dependence of induction of ARE/Nrf2 activity ([4]; FIG. 13B): dose-dependent
- protection from diamide toxicity [3]: protected FRDA cells from diamide induced oxidative stress; also recorded: dose dependent protection
- frataxin expression in HeLa cells ([5]; 48 hr, 10 micromolar dyclonine, result in words): Induces Frataxin Expression
- potentiation of DMF FXN induction [6]: potentiated DMF FXN induction

Molecule: mepartricin
- Nrf2/ARE activity (ARE-luciferase) [4]: induced Nrf2/ARE activity

Molecule: CC(=O)OC[C@H]1O[C@@H]([S-])[C@H](OC(C)=O)[C@@H](OC(C)=O)[C@@H]1OC(C)=O.CCP(CC)CC.[Au+] [auranofin]
- death of neurons with frataxin deficiency on treatment [7]: died more rapidly

Molecule: Cc1cc2nc3ccc(N(C)C)cc3[s+]c2cc1N [tolonium cl]
- EC50 [3]: 100 ± 10 nM
- maximum effect of protection from diamide toxicity, fold increase from baseline [3]: 1.9±0.1 fold

Molecule: O[C@@H](CS)[C@@H](O)CS [DTT]
- reversal of sensitivity to diamide ([7]; frataxin deficient DRG cell line / Friedreich's patient fibroblasts): could be reversed

Molecule: COC(=O)/C=C/C(=O)OC [dimethyl fumarate]
- FXN expression in vivo, FXN/actin densitometry ([1]; 5 mg/kg daily intraperitoneal for 6 days, cerebellum, p<0.05): 1.5-2 fold
- frataxin in brains and other tissues of the animal model of FRDA [1]: increased frataxin
- FXN induction in FRDA lymphoblasts ([2]; 0.03-30 micromolar dimethyl fumarate, n=3): 2.4 fold
- Nrf2/ARE activity (ARE-luciferase) [4]: induced Nrf2/ARE activity
- protection from diamide toxicity [3]: neuroprotective; also recorded: dose-dependent
- EC50 [3]: 1300 ± 800 nM
- maximum effect of protection from diamide toxicity, fold increase from baseline [3]: 1.9±0.2 fold
- FXN induction in HeLa cells ([5]; 48 hr, 0.03-30 micromolar dimethyl fumarate, n=3): 1.37 fold
- significance of FXN induction by concentration ([5]; at 1, 10 and 30 micromolar dimethyl fumarate, 48 hr (FIG. 9C)): Significant FXN induction

Molecule: CN(C)C(=O)/N=N/C(=O)N(C)C [diamide]
- death of neurons with frataxin deficiency on treatment [7]: died more rapidly
